Assay results as given in patent publication US20230271959A1, “HETEROCYCLIC COMPOUND AS BCL-2 INHIBITOR” (Beijing Innocare Pharma Tech Co., Ltd., priority 2020, published 2023).

Tests used:
[1] = target: T1, human recombinant Bcl-2 protein (Homo sapiens, UniProt P10415); test: Fluorescence polarization test for inhibition of BCL-2 binding to FITC-BIM; conditions: 5 nM BCL-2, 5 nM FITC-BIM, read-out: FP BCL-2 IC50
T1 construct: purchased Beijing Yigiao Shenzhou Biotechnology Co., Ltd. 10195-HOSE
T1 sequence (P10415 whole entry): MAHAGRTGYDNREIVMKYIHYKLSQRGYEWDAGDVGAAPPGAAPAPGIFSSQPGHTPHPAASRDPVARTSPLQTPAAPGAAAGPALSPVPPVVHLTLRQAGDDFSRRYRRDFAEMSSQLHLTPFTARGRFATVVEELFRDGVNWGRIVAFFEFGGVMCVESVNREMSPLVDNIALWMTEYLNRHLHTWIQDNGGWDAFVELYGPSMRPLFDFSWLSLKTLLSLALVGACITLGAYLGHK
Procedure, shortened: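 FP competition: compound preincubated 15 min with recombinant human Bcl-2 (diluted to 5 nM), then FITC-BIM (diluted to 5 nM) added for 30 min at room temperature in PBS pH 7.4 with 1 mM DTT. Polarization read at 480/535 nm; IC50 from 8-point 4-fold series fitted by four-parameter equation.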

[2] = target: T2, human recombinant Bcl-XL protein (Homo sapiens, UniProt Q07817); test: Fluorescence polarization test for inhibition of BCL-XL binding to FITC-BIM; conditions: 10 nM BCL-XL, 10 nM FITC-BIM, read-out: FP BCL-XL IC50
T2 construct: purchased Beijing Yiqiao Shenzhou Biotechnology Co., Ltd. 10455-H0SE
T2 sequence (Q07817 whole entry): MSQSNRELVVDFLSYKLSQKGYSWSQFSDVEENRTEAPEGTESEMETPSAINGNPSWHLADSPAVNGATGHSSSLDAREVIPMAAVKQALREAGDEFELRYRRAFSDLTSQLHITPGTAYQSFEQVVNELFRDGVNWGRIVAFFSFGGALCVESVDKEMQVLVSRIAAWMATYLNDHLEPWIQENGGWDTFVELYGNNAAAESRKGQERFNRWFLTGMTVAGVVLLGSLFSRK
Procedure, shortened: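 Human recombinant Bcl-XL (10 nM diluted stock) preincubated with compound 15 min at RT in PBS pH 7.4, 1 mM DTT, then FITC-BIM peptide (10 nM diluted stock) added for 30 min in dark. FP read at ex 480/em 535 nm; no-protein wells = 100% inhibition; IC50 from 8-point 4-fold dilution curve fit.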

[3] = system: RS4;11 cells (acute lymphoblastic leukemia cells); test: RS4;11 cell proliferation, CellTilter-Glo luminescence cell viability assay; format: cell-based; conditions: Homo sapiens, RS4-11; CTG readout after 48 hours
Procedure, shortened: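 RS4;11 cells plated overnight were exposed for 48 h at 37 °C, 5% CO2 to an 8-point, 4-fold compound dilution series; the vehicle control contained 0.2% DMSO. Viability was read by CellTiter-Glo luminescence. Percent inhibition was referenced to no-cell and DMSO controls, and IC50 came from a four-parameter sigmoidal fit.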

Structure (SMILES) | IC50 [1] [nM] | IC50 [2] [nM] | IC50 [3] [nM]
C[C@@H]1CN(c2ccc(C(=O)NS(=O)(=O)c3ccc(NCC4CCOCC4)c([N+](=O)[O-])c3)c(Oc3cnc4[nH]ccc4c3)c2)[C@H](C)CN1CC1=C(c2ccc(Cl)cc2)CC(C)(C)CC1 [Example 58, 2-((1H-Pyrrolo[2,3-b]pyridin-5-yl)oxy)-4-((2R,5R)-4-((4′-chloro-5,5-dimethyl-3,4,5,6-tetrahydro-[1,1′-biphenyl]-2-yl)methyl)-2,5-dimethylpiperazin-1-yl)-N-((3-nitro-4-(((tetrahydro-2H-pyran-4-yl)methyl)amino)phenyl)sulfonyl)benzamide] | 29.9 | > 1000 | 142
C[C@@H]1CCC(CN2CCN(c3ccc(C(=O)NS(=O)(=O)c4cc(F)c(NCC5CCOCC5)c([N+](=O)[O-])c4)c(Oc4cnc5[nH]ccc5c4)c3)[C@H](C)C2)=C(c2ccc(Cl)cc2)C1 [Example 25, 2-((1H-pyrrolo[2,3-b]pyridin-5-yl)oxy)-4-((R)-(((R)-4′-chloro-5-methyl-3,4,5,6-tetrahydro-[1,1′-biphenyl]-2-yl)methyl)-2-methylpiperazin-1-yl)-N-((3-fluoro-5-nitro-4-(((tetrahydro-2H-pyran-4-yl)methyl)amino)phenyl)sulfonyl)benzamide] | 2.71 | > 1000 | 32
C[C@@H]1CN(c2ccc(C(=O)NS(=O)(=O)c3ccc(NC[C@H]4COCCO4)c([N+](=O)[O-])c3)c(Oc3cnc4[nH]ccc4c3)c2)C[C@@H](C)N1CC1=C(c2ccc(Cl)cc2)CC(C)(C)CC1 [Example 59, N-((4-((((S)-1,4-Dioxan-2-yl)menthyl)amino)-3-nitrophenyl)sulfonyl)-2-((1H-pyrrolo[2,3-b]pyridin-5-yl)oxy)-4-((3R,5R)-4-((4′-chloro-5,5-dimethyl-3,4,5,6-tetrahydro-[1,1′-biphenyl]-2-yl)methyl)-3,5-dimethylpiperazin-1-yl)benzamide] | 73.2 | > 1000 | 193
C[C@@H]1CN(c2ccc(C(=O)NS(=O)(=O)c3ccc(NCC4CCOCC4)c([N+](=O)[O-])c3)c(Oc3cnc4[nH]ccc4c3)c2)CCN1CC1=C(c2ccc(Cl)cc2)CCC2(CC2)C1 [Example 38] | 5.24 | > 1000 | 32
C[C@H]1CN(c2ccc(C(=O)NS(=O)(=O)c3ccc(NC[C@H]4COCCO4)c([N+](=O)[O-])c3)c(Oc3cnc4[nH]ccc4c3)c2)CCN1CC1=C(c2ccc(Cl)cc2)CC(C)(C)CC1 [Example 48, N-((4-((((S)-1,4-dioxan-2-yl)methyl)amino)-3-nitrophenyl)sulfonyl)-2-((1H-pyrrolo[2,3-b]pyridin-5-yl)oxy)-4-((S)-4-((4′-chloro-5,5-dimethyl-3,4,5,6-tetrahydro-[1,1′-biphenyl]-2-yl)methyl)-3-methylpiperazin-1-yl) benzamide] | 63.8 | > 1000 | 229
C[C@@H]1CN(CC2=C(c3ccc(Cl)cc3)CCC(C)(C)C2)CCN1c1ccc(C(=O)NS(=O)(=O)c2ccc(NC[C@H]3COCCO3)c([N+](=O)[O-])c2)c(Oc2cnc3[nH]ccc3c2)c1 [Example 44, N-((4-((((S)-1,4-dioxan-2-yl)methyl)amino)-3-nitrophenyl)sulfonyl)-2-((1H-pyrrolo[2,3-b]pyridin-5-yl)oxy)-4-((R)-4-((4′-chloro-4,4-dimethyl-3,4,5,6-tetrahydro-[1,1′-biphenyl]-2-yl)methyl)-2-methylpiperazin-1-yl) benzamide] | 4.98 | > 1000 | 54
C[C@@H]1CN(CC2=C(c3ccc(Cl)cc3)CCC(C)(C)C2)CCN1c1ccc(C(=O)NS(=O)(=O)c2cc(F)c(NC[C@H]3COCCO3)c([N+](=O)[O-])c2)c(Oc2cnc3[nH]ccc3c2)c1 [Example 45, N-((4-((((S)-1,4-dioxan-2-yl)methyl)amino)-3-fluoro-5-nitrophenyl)sulfonyl)-2-((1H-pyrrolo[2,3-b]pyridin-5-yl)oxy)-4-((R)-4-((4′-chloro-4,4-dimethyl-3,4,5,6-tetrahydro-[1,1′-biphenyl]-2-yl)methyl)-2-methylpiperazin-1-yl)benzamide] | 4.22 | > 1000 | 52
C[C@@H]1CN(c2ccc(C(=O)NS(=O)(=O)c3cc(F)c(NCC4CCOCC4)c([N+](=O)[O-])c3)c(Oc3cnc4[nH]ccc4c3)c2)CCN1CC1=C(c2ccc(Cl)cc2)CCC(C)(C)C1 [Example 28, (R)-2-((1H-pyrrolo[2,3-b]pyridin-5-yl)oxy)-4-(4-((4′-chloro-4,4-dimethyl-3,4,5,6-tetrahydro-[1,1′-biphenyl]-2-yl)methyl)-3-methylpiperazin-1-yl)-N-((3-fluoro-5-nitro-4--(((tetrahydro-2H-pyran-4-yl)methyl)amino)phenyl)sulfonyl)benzamide] | 1.37 | > 1000 | 6.55
C[C@@H]1CN(c2ccc(C(=O)NS(=O)(=O)c3ccc(NC[C@H]4COCCO4)c([N+](=O)[O-])c3)c(Oc3cnc4[nH]ccc4c3)c2)CCN1CC1=C(c2ccc(Cl)cc2)CC(C)(C)C(C)(C)C1 [Example 42, N-((4-((((S)-1,4-dioxan-2-yl)methyl)amino)-3-nitrophenyl)sulfonyl)-2-((1H-pyrrolo[2,3-b]pyridin-5-yl)oxy)-4-((R)-4-((4′-chloro-4,4,5,5-tetramethyl-3,4,5,6-tetrahydro-[1,1′-biphenyl]-2-yl)methyl)-3-methylpiperazin-1-yl) benzamide] | 1.53 | > 1000 | 10
C[C@@H]1CN(CC2=C(c3ccc(Cl)cc3)CC(C)(C)CC2)CCN1c1ccc(C(=O)NS(=O)(=O)c2cc(F)c(NCC3CCN(C4COC4)CC3)c([N+](=O)[O-])c2)c(Oc2cnc3[nH]ccc3c2)c1 [Example 10, (R)-2-((1H-pyrrolo[2,3-b]pyridin-5-yl)oxy)-4-(4-((4′-chloro-5,5-dimethyl-3,4,5,6-tetrahydro-[1,1′-biphenyl]-2-yl)methyl)-2-methylpiperazin-1-yl)-N-((3-fluoro-5-nitro-4-(((1-(3-oxetanyl)piperidin-4-yl)methyl)amino)phenyl)sulfonyl)benzamide] | 8.21 | > 1000 | 68

Results, then the compound that gave them:

IC50 [1] [nM] | IC50 [2] [nM] | IC50 [3] [nM] | Structure (SMILES)
2.57 | > 1000 | 8.8 | C[C@@H]1CCC(CN2CCN(c3ccc(C(=O)NS(=O)(=O)c4ccc(NC[C@H]5COCCO5)c([N+](=O)[O-])c4)c(Oc4cnc5[nH]ccc5c4)c3)C[C@H]2C)=C(c2ccc(Cl)cc2)C1 [Example 20, N-((4-((((S)-1,4-dioxan-2-yl)methyl)amino)-3-nitrophenyl)sulfonyl)-2-((1H-pyrrolo[2,3-b]pyridin-5-yl)oxy)-4-((R)-4-(((R)-4′-chloro-5-methyl-3,4,5,6-tetrahydro-[1,1′-biphenyl]-2-yl)methyl)-3-methylpiperazin-1-yl)benzamide]
1.63 | > 1000 | 14 | C[C@@H]1CCC(CN2CCN(c3ccc(C(=O)NS(=O)(=O)c4cc(F)c(NC[C@H]5COCCO5)c([N+](=O)[O-])c4)c(Oc4cnc5[nH]ccc5c4)c3)[C@H](C)C2)=C(c2ccc(Cl)cc2)C1 [Example 26]
1.8 | > 1000 | 6.6 | C[C@@H]1CN(c2ccc(C(=O)NS(=O)(=O)c3cc(F)c(NC[C@H]4COCCO4)c([N+](=O)[O-])c3)c(Oc3cnc4[nH]ccc4c3)c2)CCN1CC1=C(c2ccc(Cl)cc2)CC(C)(C)C2(CC2)C1 [Example 32, N-((4-((((S)-1,4-dioxan-2-yl)methyl)amino)-3-fluoro-5-nitrophenyl)-sulfonyl)-2-((1H-pyrrolo [2,3-b]pyridin-5-yl)oxy)-4-((R)-4-((6-(4-chlorophenyl)-8,8-dimethylspiro[2.5]oct-5-en-5-yl)methyl)-3-methylpiperazin-1-yl) benzamide]
1.46 | 953 | 3.1 | C[C@H]1CCC(CN2CCN(c3ccc(C(=O)NS(=O)(=O)c4cc(F)c(NC[C@H]5COCCO5)c([N+](=O)[O-])c4)c(Oc4cnc5[nH]ccc5c4)c3)C[C@H]2C)=C(c2ccc(Cl)cc2)C1 [Example 17, N-((4-((((S)-1,4-dioxan-2-yl)methyl)amino)-3-fluoro-5-nitrophenyl)sulfonyl)-2-((1H-pyrrolo[2,3-b]pyridin-5-yl)oxy)-4-((R)-4-(((S)-4′-chloro-5-methyl-3,4,5,6-tetrahydro-[1,1′-biphenyl]-2-yl)methyl)-3-methylpiperazin-1-yl)benzamide]
2.3 | > 1000 | 5.7 | C[C@@H]1CN(c2ccc(C(=O)NS(=O)(=O)c3cc(F)c(NC[C@@H]4COCCO4)c([N+](=O)[O-])c3)c(Oc3cnc4[nH]ccc4c3)c2)CCN1CC1=C(c2ccc(Cl)cc2)CC(C)(C)CC1 [Example 55, N-((4-((((R)-1,4-dioxan-2-yl)methyl)amino)-3-fluoro-5-nitrophenyl)sulfonyl)-2-((1H-pyrrolo[2,3-b]pyridin-5-yl)oxy)-4-((R)-4-((4′-chloro-5,5-dimethyl-3,4,5,6-tetrahydro-[1,1′-biphenyl]-2-yl)methyl)-3-methylpiperazin-1-yl)benzamide]
1.49 | > 1000 | 4.1 | C[C@@H]1CCC(CN2CCN(c3ccc(C(=O)NS(=O)(=O)c4cc(F)c(NC[C@H]5COCCO5)c([N+](=O)[O-])c4)c(Oc4cnc5[nH]ccc5c4)c3)C[C@H]2C)=C(c2ccc(Cl)cc2)C1 [Example 22]
